In the NIST ThermoML archive (doi:10.1016/j.fluid.2016.09.021):

Details: Liquid, Vibrating tube method

CCCCCCCCCCCC [dodecane]
mass density [kg/m3]
Details	293 K	313 K	333 K	353 K	373 K	393 K	413 K	433 K	448 K	468 K
2100 kPa	752.3	737.7	722.8	708.1	693.2	678.1	662.8	646.8	634.6	617.8
3100 kPa	752.9	738.5	723.6	709	694.3	679.2	664.2	648.5	636.7	619.9
4100 kPa	753.6	739.2	724.5	710	695.3	680.4	665.6	650	638.2	622
5000 kPa	754.2	739.9	725.3	710.9	696.3	681.6	666.9	651.6	640	624.1
10100 kPa	757.5	743.4	729.4	715.6	701.5	687.5	673.7	659.5	648.5	634.1
20000 kPa	763.5	750.1	736.6	723.9	710.8	697.8	685.1	672	662.4	649.5
30000 kPa	769	756.3	743.4	731.3	718.7	706.6	694.9	682.8	674	661.8
40000 kPa	774.3	761.8	749.6	737.7	726	714.7	703.6	692.1	684	672.8
50000 kPa	779	767.1	755.3	744.1	733.1	722.2	711.4	700.6	692.9	682.6
60000 kPa	783.8	772.1	760.8	750.1	739.4	728.7	718.7	708.3	701	691
69900 kPa	788	777	766	755.6	745.2	735.1	725.4	715.6	708.3	698.9
79900 kPa	792.5	781.6	770.9	760.7	750.7	741.1	731.7	722.1	715.3	706.3
89900 kPa	796.7	786.1	775.7	765.7	756	746.8	737.3	728.3	721.9	712.9
99900 kPa	800.8	790.4	780.1	770.5	761	752.2	743.2	734.3	727.9	719.2
109900 kPa	804.8	794.6	784.6	775.1	765.9	757.2	748.5	739.8	733.5	725.1
119900 kPa	808.7	798.7	788.8	779.6	770.6	762	753.7	745.1	739	731
129900 kPa	812.4	802.7	793.2	784	775.1	766.8	758.5	750.3	744.2	736.3
134900 kPa	814.4	804.6	795.1	786	777.4	769	760.9	752.7	746.7	738.9
137400 kPa	815.2	805.4	796	787	778.5	770.2	762	753.9	747.9	740.2

Cc1ccccc1 [toluene]
mass density [kg/m3]
Details	293 K	313 K	333 K	353 K	373 K	393 K	413 K	433 K	448 K	468 K
2000 kPa	871.2	852.2	833	814.2	794.2	774.2	753.1	731.6	714.3	689.9
3000 kPa	871.9	853	834	815.2	795.4	775.7	754.9	733.6	716.6	692.7
4000 kPa	872.6	853.9	834.9	816.3	796.6	777.2	756.5	735.6	718.9	695.5
5000 kPa	873.2	854.6	835.8	817.3	797.8	778.5	758.3	737.5	721.1	698.2
10000 kPa	876.8	858.6	840.2	822.4	803.8	785.1	766.1	746.9	731.4	710.6
20000 kPa	883.4	866.1	848.2	831.5	814	797	779.5	762.1	748.5	730.4
30000 kPa	889.3	872.9	855.9	840.1	823.5	807.5	791.3	774.9	762.6	745.9
40000 kPa	895.1	879	863	847.6	832	816.9	801.6	786.5	774.7	759.3
50000 kPa	900.5	884.8	869.2	854.7	840.2	825.2	810.8	796.7	785.5	771.1
60000 kPa	905.8	890.4	875.6	861.5	847.2	833.3	819.2	805.8	795.1	781.7
70000 kPa	910.8	896	881.5	867.7	853.9	840.6	827.3	814.3	804.1	790.9
80000 kPa	915.8	901.2	887.1	873.8	860.3	847.3	834.6	822	812.3	799.8
90000 kPa	920.4	906.3	892.3	879.6	866.6	854	841.3	829.2	820	808
100000 kPa	924.8	911	897.6	884.9	872.2	860.1	848	836	827.2	815.5
110000 kPa	929.4	915.7	902.5	890.3	877.8	866	854.2	842.6	833.9	822.8
120000 kPa	933.6	920.3	907.3	895.4	883.3	871.6	860.2	848.7	840.2	829.5
130000 kPa	938	924.8	912	900.3	888.5	877.2	865.8	854.9	846.6	836
135000 kPa	939.9	927	914.2	902.6	890.8	879.8	868.5	857.7	849.6	838.9
137500 kPa	940.9	927.9	915.4	903.7	892	881	869.7	859	850.9	840.4
